Assay results published in patent US20160022769A1, “COMPOSTIONS AND METHODS FOR TREATING RETINAL DISEASE” (RETINAL SOLUTIONS LLC, priority 2013, published 2016).

Columns and labels:
[1] = biological target: T1, Frizzled receptor subtype 4 (Fz4) (Homo sapiens, UniProt Q9ULV1); details: literature (Xu 2004 and others); cited from earlier work
T1 sequence (Q9ULV1 37-537): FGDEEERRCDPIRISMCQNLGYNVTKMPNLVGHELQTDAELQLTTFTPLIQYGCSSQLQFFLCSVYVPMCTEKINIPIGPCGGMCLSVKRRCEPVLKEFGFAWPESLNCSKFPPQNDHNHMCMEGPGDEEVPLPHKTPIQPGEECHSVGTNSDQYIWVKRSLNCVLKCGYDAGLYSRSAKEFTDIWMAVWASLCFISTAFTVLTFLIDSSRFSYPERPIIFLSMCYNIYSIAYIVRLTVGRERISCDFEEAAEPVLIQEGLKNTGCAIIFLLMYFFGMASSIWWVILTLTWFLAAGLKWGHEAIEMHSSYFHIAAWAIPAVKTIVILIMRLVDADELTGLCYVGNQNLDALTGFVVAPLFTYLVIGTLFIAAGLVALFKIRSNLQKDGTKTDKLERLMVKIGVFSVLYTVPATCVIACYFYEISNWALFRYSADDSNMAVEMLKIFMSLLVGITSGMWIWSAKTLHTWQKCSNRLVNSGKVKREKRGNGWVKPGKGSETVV

[2] = test system: posterior capillary dropout in the retina; assay: oxygen-induced retinopathy (OIR) mouse model, fluorescein angiography of retinal capillary dropout; format: in vivo
Source text: FIG. 2 is a montage of fluorescein angiograms depicting a retinal phenotype as observed in an OIR mouse, which highlights large areas of posterior capillary dropout in the retina.
Capillary drop out is a very serious problem for many retinal vascular diseases. […] See Trese, M. T. et al., Retinal Physician, April 2011.

Substance: Norrin: 131 amino acid secreted protein (NCBI NP_000257.1), ligand of Frizzled-4 that activates Wnt signaling
- affinity for Fz4 [1]: nanomolar affinity
- retinal phenotype on fluorescein angiogram ([2]; OIR mouse, intravitreal injection, FIG. 4): posterior capillary sparing
- capillary dropout ([2]; murine capillary dropout model, norrin treatment (FIG. 4 vs FIGS. 1-3)): reduced or eliminated
